Source: US10329542B2, “HBV RNAse H purification and enzyme inhibitors” (Saint Louis University, priority 2012, dated 2019)

Assays:
HBV genotype D = test: HBV replication inhibition in Huh7 cells, Southern blot, genotype D; format: cell-based, Hepatitis B virus; settings: 10 μM
Method: Huh7 cells were maintained in Dulbecco's modified Eagle's medium with 10% fetal bovine serum at 37° C. in 5% CO2. Cells were seeded into 60 mm dishes and transfected at 70% confluency with 2.6 μg of plasmids using TransIT-LT1 (Mirus, Inc.). Test compounds were added the morning following transfection at 10 or 50 μM, and fresh medium containing the compounds was provided every 1-2 days. Four or five days post-transfection HBV cores were isolated by lysis of the cells in 10 mM Tris pH 7.5, 1 mM EDTA, 0.25% NP40, 50 mM NaCl, and 8% sucrose followed by sedimentation through a 30% sucrose cushion as described (Travis, et al., 1998). […] The nucleic acid samples were resolved by electrophoresis on 1.2% agarose gels and detected by Southern blotting with ^32P-labeled HBV DNA as a probe.
Finally, the inventors asked whether HBV RNAseH inhibitors could block HBV replication in culture. […] Replicate nucleic acid aliquots were mock treated or treated with DNAse-free E. coli RNAseH to destroy RNA:DNA heteroduplexes, and then HBV DNAs were detected by Southern blotting. […]
Inhibition of HBV replication by βTJ was measured as recently described (Tavis et al., 2013). […] The nucleic acids were resolved by electrophoresis on 1.2% agarose gels and HBV DNAs were detected by Southern blotting with ^32P-labeled double-stranded HBV DNA as a probe to detect both the plus- and minus-polarity HBV DNA strands. […]

HBV genotype A = settings: 10 μM; Tavis et al., 2013; cited from earlier work
HepG2 cells = test: MTS cytotoxicity assay in HepG2 cells; format: cell-based, human; settings: four days
Method: Toxicity of βTJ in Huh7 cells was determined with 3-(4,5-dimethylthiazol-2-yl)-5-β-carboxymethoxyphenyl)-2-(4-sulfophenyl)-2H-tetrazolium (MTS) assays that measures mitochondrial dysfunction employing the Cell Titre 96 aqueous nonradioactive cell proliferation assay (Promega), and with the CytoTox-Glo assay (Promega) that reflects cellular integrity. Huh7 and HepG2 cells (1×10^4) were plated in 96-well tissue culture plates, medium containing βTJ at the indicated concentrations was added the next day, the medium was replaced with fresh medium containing βTJ after two days, and after four days the MTS or CytoTox-Glo assays were conducted according to the manufacturer's instructions.

HIV = settings: cited from earlier work

| Structure (SMILES) | Inhibition of HBV replication, genotype D isolate (HBV genotype D) | Block of viral replication in Huh7 cells (HBV genotype A) [%] | CC50 (HepG2 cells) [µM] | Activity against HIV replication in cells (HIV) |
| --- | --- | --- | --- | --- |
| NCc1ccc(-c2ccc(Cc3cc(=O)n(O)c4ncccc34)cc2)cc1 [Compound 12, napthyridinone] | Very few of the most slowly-migrating double-stranded nucleic acids accumulated | ~93 | – | – |
| CC(C)c1ccc(O)c(=O)c(O)c1 [Compound 46, beta-thujaplicinol] | – | – | 16.7 ± 3.7 | inactive |
